Reference: US5807855A, “1-piperazino-1,2-dihydroindene derivatives” (priority 1992, dated 1998)
Like-named read-outs stand apart in the source and are kept apart here.

How the values were obtained:
[1] = molecular target: T1, 5-HT2 receptors (Rattus norvegicus, UniProt P14842); assay: Inhibition of 3H-ketanserin binding to 5-HT2 receptors in membranes from rat cortex; settings: Receptor Binding, IC50, 5-HT2 3H-Ket
T1 construct: 5-HT2 receptors in membranes from rat cortex; from tissue; host or cells: membranes from rat cortex
Protocol: Receptor binding studies.
5-HT2 receptors. Inhibition of ^3 H-ketanserin binding to 5-HT2 receptors in membranes from rat cortex was determined as described by Hyttel, J. Acta. Pharmacol. Toxicol.

[2] = molecular target: T2, DA D2 receptors (Rattus norvegicus, UniProt P61169); assay: Inhibition of 3H-spiperone binding to DA D2 receptors in rat striatal membranes; settings: rat striatal membranes, 3H-spiperone; read-out: Receptor Binding; IC50, D2 3H-Spi
T2 construct: DA D2 receptors in rat striatal membranes; from tissue; host or cells: rat striatal membranes

[3] = molecular target: DA D1 receptor (Rattus norvegicus, UniProt P18901); assay: biochemical; format: binding; settings: IC50, D1 3H-SCH
[4] = rat striatal membranes, 3H-SCH 23390, read-out: Receptor Binding

Chain of DA D1 receptor (P18901 whole entry): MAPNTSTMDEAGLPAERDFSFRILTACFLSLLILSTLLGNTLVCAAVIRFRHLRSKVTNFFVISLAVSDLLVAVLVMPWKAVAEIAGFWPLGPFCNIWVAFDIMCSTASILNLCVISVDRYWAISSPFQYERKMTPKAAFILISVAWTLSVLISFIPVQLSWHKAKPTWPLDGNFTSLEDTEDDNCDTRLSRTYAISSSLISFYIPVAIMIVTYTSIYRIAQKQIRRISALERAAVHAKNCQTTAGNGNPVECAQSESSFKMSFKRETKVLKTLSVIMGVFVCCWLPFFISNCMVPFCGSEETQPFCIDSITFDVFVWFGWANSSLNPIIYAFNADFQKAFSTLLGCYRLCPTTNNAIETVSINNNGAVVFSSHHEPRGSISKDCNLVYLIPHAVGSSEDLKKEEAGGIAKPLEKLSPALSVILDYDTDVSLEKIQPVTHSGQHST
T2 sequence (P61169 whole entry): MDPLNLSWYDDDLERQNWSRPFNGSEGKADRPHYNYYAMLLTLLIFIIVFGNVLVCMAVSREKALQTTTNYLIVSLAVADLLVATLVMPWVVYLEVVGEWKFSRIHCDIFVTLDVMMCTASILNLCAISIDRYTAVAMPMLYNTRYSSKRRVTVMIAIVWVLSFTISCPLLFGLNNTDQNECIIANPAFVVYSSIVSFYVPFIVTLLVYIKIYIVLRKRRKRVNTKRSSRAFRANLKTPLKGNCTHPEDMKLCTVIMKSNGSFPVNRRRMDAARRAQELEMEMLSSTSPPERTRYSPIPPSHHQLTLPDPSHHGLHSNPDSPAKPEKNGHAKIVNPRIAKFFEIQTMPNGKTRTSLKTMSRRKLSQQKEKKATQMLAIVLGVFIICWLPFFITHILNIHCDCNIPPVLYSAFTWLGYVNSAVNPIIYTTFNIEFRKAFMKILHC
T1 sequence (P14842 whole entry): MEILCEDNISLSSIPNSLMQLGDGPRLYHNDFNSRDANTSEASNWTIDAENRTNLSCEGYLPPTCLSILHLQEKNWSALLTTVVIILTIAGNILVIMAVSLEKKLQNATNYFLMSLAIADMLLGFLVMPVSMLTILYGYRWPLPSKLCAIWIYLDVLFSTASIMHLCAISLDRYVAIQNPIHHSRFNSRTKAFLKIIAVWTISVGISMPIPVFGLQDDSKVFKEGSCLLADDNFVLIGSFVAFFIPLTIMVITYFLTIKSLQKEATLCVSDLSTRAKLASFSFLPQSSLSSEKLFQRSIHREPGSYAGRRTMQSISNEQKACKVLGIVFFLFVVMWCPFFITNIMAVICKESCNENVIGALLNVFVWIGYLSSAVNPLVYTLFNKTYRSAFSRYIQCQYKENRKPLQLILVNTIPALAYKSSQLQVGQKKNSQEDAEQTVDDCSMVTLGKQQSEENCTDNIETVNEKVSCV

Row | Structure (SMILES) | IC50 [1] [nM] | IC50 [2] [nM] | IC50 [3, 4] [nM] | IC50 ([3]; Receptor Binding) [nM]
1 | CN1CCN([C@@H]2C[C@@H](c3ccc(F)cc3)c3ccc(Cl)cc32)CC12CCCC2 (single isomer, unassigned) [Compound -29] | 4 |  |  | 
2 | CC(C)C1CN([C@@H]2C[C@@H](c3ccc(F)cc3)c3ccc(Cl)cc32)CCN1 (relative stereo) [Compound 19, Trans-4-[6-chloro-3-(4-fluorophenyl)-2,3-dihydro-1H-inden-1-yl]-2-(2-propyl)piperazine] | 5.6 | 38 | 2.2 | 
3 | CN1CCN([C@@H]2C[C@@H](c3ccc(F)cc3)c3ccc(Cl)cc32)CC12CCC2 (racemic) [Compound 28, (±)-Trans-8-[6-chloro-3-(4-fluorophenyl)-2,3-dihydro-1H-inden-1-yl]-5-methyl-5,8-diazaspiro[3.5]nonane] | 3 | 6.3 |  | 
4 | C[C@@H]1CN([C@@H]2C[C@@H](c3ccc(F)cc3)c3ccc(Cl)cc32)C[C@H](C)N1C (relative stereo) [Compound 26, (±)-Trans-4-[6-chloro-3-(4-fluorophenyl)-2,3-dihydro-1H-inden-1-yl]-(1-cis-2,6-trimethyl)piperazine] | 3.3 |  |  | 
5 | CN1CCN([C@@H]2C[C@@H](c3ccc(F)cc3)c3ccc(Br)cc32)CC1(C)C (racemic) [Compound 8, (±)-Trans-4-[6-bromo-3-(4-fluorophenyl)-2,3-dihydro-1H-inden-1-yl]-1,2,2-trimethylpiperazine] | 3 | 8.6 |  | 1.8
6 | CN1CCN([C@@H]2C[C@@H](c3cccc(F)c3)c3ccc(Cl)cc32)CC1(C)C (racemic) [Compound 12, (±)-Trans-4-[6-chloro-3-(3-fluorophenyl)-2,3-dihydro-1H-inden-1-yl]-1,2,2-trimethylpiperazine] | 26 | 280 |  | 9.6
7 | CC(C)N1CCN([C@@H]2C[C@@H](c3ccc(F)cc3)c3ccc(Cl)cc32)CC1(C)C (single isomer, unassigned) [Compound -40] | 2.5 |  |  | 
8 | CC1(C)CN([C@@H]2C[C@@H](c3ccc(F)cc3)c3ccc(Cl)cc32)CCN1CCCO (racemic) [Compound 39, (±)-Trans-4-[6-chloro-3-(4-fluorophenyl)-2,3-dihydro-1H-inden-1-yl]-2,2-dimethyl-1-piperazinepropanol] | 3 | 9.8 | 1.8 | 
9 | CN1CCN([C@@H]2C[C@@H](c3ccc(F)cc3)c3cccc(Cl)c32)CC1(C)C (racemic) [Compound 17, (±)-Trans-4-[7-chloro-3-(4-fluorophenyl)-2,3-dihydro-1H-inden-1-yl]-1,2,2-trimethylpiperazine] | 31 | 1200 |  | 32
10 | OCCN1CCN([C@@H]2C[C@@H](c3ccc(F)cc3)c3ccc(Cl)cc32)CC12CCCC2 (relative stereo) [Compound 44] | 6 |  |  | 
11 | Fc1ccc(C2CC(N3CCN4CCCCC4C3)c3cc(F)ccc32)cc1 (centres unmarked) [Compound 33, 2-[6-fluoro-3-(4-fluorophenyl)-2,3-dihydro-1H-inden-1-yl]-octahydropyrido[1,2-a]-pyrazine] | 28 | 320 | 5.8 | 
12 | CN1CCN([C@@H]2C[C@@H](c3ccc(F)cc3)c3cc(Cl)ccc32)CC1(C)C (racemic) [Compound 16, (±)-Trans-4-[5-chloro-3-(4-fluorophenyl)-2,3-dihydro-1H-inden-1-yl]-1,2,2-trimethylpiperazine] | 9.3 | 340 |  | 37
13 | Cc1ccc2c(c1)[C@H](N1CCN(C)C(C)(C)C1)C[C@H]2c1ccc(F)cc1 (racemic) [Compound 5, (±)-Trans-4-[6-methyl-3-(4-fluorophenyl)-2,3-dihydro-1H-inden-1-yl]-1,2,2-trimethylpiperazine] | 3.4 | 4.8 |  | 2.1
14 | OCCN1CCN([C@@H]2C[C@@H](c3ccc(F)cc3)c3ccc(Cl)cc32)CC12CCCC2 (single isomer, unassigned) [Compound -44] | 2.5 |  |  | 
15 | CCC1(CC)CN([C@@H]2C[C@@H](c3ccc(F)cc3)c3ccc(Cl)cc32)CCN1 (racemic) [Compound 23, (±)-Trans-4-[6-chloro-3-(4-fluorophenyl)-2,3-dihydro-1H-inden-1-yl]-2,2-diethylpiperazine] | 11 | 36 | 4.7 | 
16 | CN1CCN([C@@H]2C[C@@H](c3ccc(F)cc3)c3ccc(Cl)cc32)CC12CCCC2 (single isomer, unassigned) [+29, (+)-Trans-9-[6-chloro-3-(4-fluorophenyl)-2,3-dihydro-1H-inden-1-yl]-6-methyl-6,9-diazaspiro[4.5]decane] | 13 |  |  | 

Row | Structure (SMILES) | IC50 [1] [nM] | IC50 [2] [nM] | IC50 [3, 4] [nM] | IC50 ([3]; Receptor Binding) [nM]
17 | CN1CCN([C@@H]2C[C@@H](c3ccc(F)cc3)c3ccc(Cl)cc32)CC12CCCC2 (relative stereo) [Compound 29] | 5.2 |  |  | 
18 | CC1(C)CN([C@@H]2C[C@@H](c3ccsc3)c3ccc(Cl)cc32)CCN1 (racemic) [Compound 13, (±)-Trans-4-[6-chloro-3-(3-thienyl)-2,3-dihydro-1H-inden-1-yl]-2,2-dimethylpiperazine] | 1 | 8.2 |  | 1.4
19 | CN1CCN([C@@H]2C[C@@H](c3ccccc3)c3ccccc32)CC1(C)C (racemic) [Compound 3, (±)-Trans-4-[3-phenyl-2,3-dihydro-1H-inden-1-yl]-1,2,2-trimethyl-piperazine] | 21 | 140 |  | 13
20 | CN1CCN([C@@H]2C[C@@H](c3ccc(F)cc3)c3cccc(F)c32)CC1(C)C (racemic) [Compound 36, (±)-Trans-4-[7-fluoro-3-(4-fluorophenyl)-2,3-dihydro-1H-inden-1-yl]-1,2,2-trimethyl piperazine] | 9.8 | 74 |  | 3.8
21 | Cc1ccc2c(c1)[C@H](N1CCNC(C)(C)C1)C[C@H]2c1ccc(F)cc1 (racemic) [Compound 4, (±)-Trans-2,2-dimethyl-4-[6-methyl-3-(4-fluorophenyl)-2,3-dihydro-1H-inden-1-yl]piperazine] | 1.5 | 5.6 | 5.9 | 
22 | CN1CCN([C@@H]2C[C@@H](c3ccc(F)cc3)c3cc(Cl)c(Cl)cc32)CC1(C)C (racemic) [Compound 9, (±)-Trans-4-[5,6-dichloro-3-(4-fluorophenyl)-2,3-dihydro-1H-inden-1-yl]-1,2,2-trimethylpiperazine] | 5.9 | 44 | 18 | 
23 | CN1CCN([C@@H]2C[C@@H](c3ccccc3F)c3ccc(Cl)cc32)CC1(C)C (racemic) [Compound 11, (±)-Trans-4-[6-chloro-3-(2-fluorophenyl)-2,3-dihydro-1H-inden-1-yl]-1,2,2-trimethylpiperazine] | 21 | 36 |  | 4.4
24 | CC(C)N1CCN([C@@H]2C[C@@H](c3ccc(F)cc3)c3ccc(Cl)cc32)CC1(C)C (relative stereo) [Compound 40] | 4.1 |  |  | 
25 | CC(C)C1CN([C@@H]2C[C@@H](c3ccc(F)cc3)c3ccc(Cl)cc32)CCN1 (relative stereo) [Compound 20, Trans-4-[6-chloro-3-(4-fluorophenyl)-2,3-dihydro-1H-inden-1-yl]-2-(2-propyl)piperazine] | 8.8 | 130 | 6 | 
26 | CN1CCN([C@@H]2C[C@@H](c3ccc(F)cc3)c3ccc(C(F)(F)F)cc32)CC1(C)C (racemic) [Compound 7, (±)-Trans-4-[6-trifluoromethyl-3-(4-fluorophenyl)-2,3-dihydro-1H-inden-1-yl]-1,2,2-trimethylpiperazine] | 4.5 | 5.7 |  | 1.5
27 | Fc1ccc([C@@H]2C[C@@H](N3CCNC4(CCCCC4)C3)c3cc(Cl)ccc32)cc1 (racemic) [Compound 31, (±)-Trans-4-[6-chloro-3-(4-fluorophenyl)-2,3-dihydro-1H-inden-1-yl]-1,4-diazaspiro[5.5]undecan] | 25 | 75 | 6.4 | 
28 | CC1CN([C@@H]2C[C@@H](c3ccc(F)cc3)c3ccc(Cl)cc32)C(C)CN1C (relative stereo) [Compound 25, (±)-Trans-4-[6-chloro-3-(4-fluorophenyl)-2,3-dihydro-1H-inden-1-yl]-(1-trans-2,5-trimethyl)piperazine] | 3.4 |  |  | 
29 | CC(C)C1CN([C@@H]2C[C@@H](c3ccc(F)cc3)c3ccc(Cl)cc32)CCN1C (relative stereo) [Compound 21, Trans-4-[6-chloro-3-(4-fluorophenyl)-2,3-dihydro-1H-inden-1-yl]-1-methyl-2-(2-propyl)piperazine] |  | 36 | 3.2 | 
30 | CN1CCN([C@@H]2C[C@@H](c3ccsc3)c3ccc(Cl)cc32)CC1(C)C (racemic) [Compound 14, (±)-Trans-4-[6-chloro-3-(3-thienyl)-2,3-dihydro-1H-inden-1-yl]-1,2,2-trimethylpiperazine] | 1.7 | 6.1 |  | 0.76
31 | CN1CCN([C@@H]2C[C@@H](c3ccc(F)cc3)c3c(Cl)cccc32)CC1(C)C (racemic) [Compound 15, (±)-Trans-4-[4-chloro-3-(4-fluorophenyl)-2,3-dihydro-1H-inden-1-yl]-1,2,2-trimethylpiperazine] | 29 |  | 45 | 
32 | CC(C)N1CCN([C@@H]2C[C@@H](c3ccc(F)cc3)c3ccc(Cl)cc32)CC12CCCC2 (racemic) [Compound 42, (±)-Trans-9-[6-chloro-3-(4-fluorophenyl)-2,3-dihydro-1H-inden-1-yl]-6-(2-propyl)-6,9-diazaspiro[4.5]decane] |  | 8.8 | 1.3 | 
